Assay results reported in ChEMBL document CHEMBL1177794, “Broad spectrum alkynyl inhibitors of T315I Bcr-Abl” (Bioorg Med Chem Lett, 2010).

Key:
[1] = tested on: Epidermal growth factor receptor (Homo sapiens), P00533 [L858R]; experiment: Inhibition of EGFR L858R mutant at 10 uM; values are per cent of control
[2] = tested on: Hepatocyte growth factor receptor (Homo sapiens), P08581 [M1250T]; experiment: Inhibition of MET M1250T mutant at 10 uM
[3] = molecular target: Ephrin type-B receptor 3 (Homo sapiens) (UniProt P54753); experiment: Inhibition of EPHB3 at 10 uM; details: values are per cent of control
[4] = molecular target: Ribosomal protein S6 kinase alpha-3 (Homo sapiens) (UniProt P51812); experiment: Inhibition of RSK2 N-terminal domain1 at 10 uM
[5] = molecular target: Death-associated protein kinase 1 (Homo sapiens) (UniProt P53355); experiment: Inhibition of DAPK1 at 10 uM; details: values are per cent of control
[6] = molecular target: Megakaryocyte-associated tyrosine-protein kinase (Homo sapiens) (UniProt P42679); experiment: Inhibition of CTK at 10 uM; details: values are per cent of control
[7] = molecular target: Serine/threonine-protein kinase NIM1 (Homo sapiens) (UniProt Q8IY84); experiment: Inhibition of NIM1 at 10 uM
[8] = molecular target: Serine/threonine-protein kinase 24 (Homo sapiens) (UniProt Q9Y6E0); experiment: Inhibition of MST3 at 10 uM
[9] = molecular target: Serine/threonine-protein kinase pim-1 (Homo sapiens) (UniProt P11309); experiment: Inhibition of PIM1 at 10 uM
[10] = molecular target: Myosin-IIIb (Homo sapiens) (UniProt Q8WXR4); experiment: Inhibition of MYO3B at 10 uM
[11] = molecular target: Serine/threonine-protein kinase Nek11 (Homo sapiens) (UniProt Q8NG66); experiment: Inhibition of NEK11 at 10 uM
[12] = molecular target: Tyrosine-protein kinase JAK3 (Homo sapiens) (UniProt P52333); experiment: Inhibition of JAK3 JH1 catalytic domain at 10 uM; values are per cent of control
[13] = molecular target: Vascular endothelial growth factor receptor 2 (Homo sapiens) (UniProt P35968); experiment: Inhibition of VEGFR2 at 10 uM; details: values are per cent of control
[14] = molecular target: Protein kinase C iota type (Homo sapiens) (UniProt P41743); experiment: Inhibition of PRKCI at 10 uM
[15] = molecular target: TRAF2 and NCK-interacting protein kinase (Homo sapiens) (UniProt Q9UKE5); experiment: Inhibition of TNIK at 10 uM; details: values are per cent of control
[16] = molecular target: Tyrosine-protein kinase Mer (Homo sapiens) (UniProt Q12866); experiment: Inhibition of MERTK at 10 uM; details: values are per cent of control
[17] = molecular target: Ribosomal protein S6 kinase alpha-6 (Homo sapiens) (UniProt Q9UK32); experiment: Inhibition of RSK4 C-terminal domain2 at 10 uM
[18] = molecular target: Serine/threonine-protein kinase N2 (Homo sapiens) (UniProt Q16513); experiment: Inhibition of PKN2 at 10 uM
[19] = molecular target: Ankyrin repeat and protein kinase domain-containing protein 1 (Homo sapiens) (UniProt Q8NFD2); experiment: Inhibition of ANKK1 at 10 uM; details: values are per cent of control
[20] = molecular target: Serine/threonine-protein kinase TNNI3K (Homo sapiens) (UniProt Q59H18); experiment: Inhibition of TNNI3K at 10 uM; details: values are per cent of control
[21] = molecular target: Calcium/calmodulin-dependent protein kinase type II subunit alpha (Homo sapiens) (UniProt Q9UQM7); experiment: Inhibition of CAMK2A at 10 uM; details: values are per cent of control
[22] = molecular target: cAMP-dependent protein kinase catalytic subunit PRKX (Homo sapiens) (UniProt P51817); experiment: Inhibition of PRKX at 10 uM
[23] = molecular target: Calcium/calmodulin-dependent protein kinase type 1 (Homo sapiens) (UniProt Q14012); experiment: Inhibition of CAMK1 at 10 uM; details: values are per cent of control
[24] = molecular target: Macrophage colony-stimulating factor 1 receptor (Homo sapiens) (UniProt P07333); experiment: Inhibition of CSF1R at 10 uM; details: values are per cent of control
[25] = molecular target: Serine/threonine-protein kinase 32C (Homo sapiens) (UniProt Q86UX6); experiment: Inhibition of YANK3 at 10 uM; details: values are per cent of control
[26] = molecular target: Cyclin-dependent kinase 7 (Homo sapiens) (UniProt P50613); experiment: Inhibition of CDK7 at 10 uM; values are per cent of control
[27] = molecular target: Cytoplasmic tyrosine-protein kinase BMX (Homo sapiens) (UniProt P51813); experiment: Inhibition of BMX at 10 uM; details: values are per cent of control
[28] = molecular target: Phosphatidylinositol 4-phosphate 5-kinase type-1 gamma (Homo sapiens) (UniProt O60331); experiment: Inhibition of PIP5K1C at 10 uM
[29] = molecular target: Activin receptor type-2B (Homo sapiens) (UniProt Q13705); experiment: Inhibition of ACVR2B at 10 uM; values are per cent of control
[30] = molecular target: Mitogen-activated protein kinase 8 (Homo sapiens) (UniProt P45983); experiment: Inhibition of JNK1 at 10 uM; values are per cent of control
[31] = molecular target: Tyrosine-protein kinase Fes/Fps (Homo sapiens) (UniProt P07332); experiment: Inhibition of FES at 10 uM; details: values are per cent of control
[32] = molecular target: Serine/threonine-protein kinase MARK2 (Homo sapiens) (UniProt Q7KZI7); experiment: Inhibition of MARK2 at 10 uM; details: values are per cent of control
[33] = molecular target: Mitogen-activated protein kinase kinase kinase 7 (Homo sapiens) (UniProt O43318); experiment: Inhibition of TAK1 at 10 uM; values are per cent of control
[34] = molecular target: Dual specificity protein kinase CLK3 (Homo sapiens) (UniProt P49761); experiment: Inhibition of CLK3 at 10 uM; details: values are per cent of control
[35] = molecular target: Cyclin-dependent kinase-like 3 (Homo sapiens) (UniProt Q8IVW4); experiment: Inhibition of CDKL3 at 10 uM; details: values are per cent of control
[36] = molecular target: TGF-beta receptor type-1 (Homo sapiens) (UniProt P36897); experiment: Inhibition of TGFBR1 at 10 uM
[37] = molecular target: Mitogen-activated protein kinase kinase kinase 1 (Homo sapiens) (UniProt Q13233); experiment: Inhibition of MAP3K1 at 10 uM; details: values are per cent of control
[38] = molecular target: Leukocyte tyrosine kinase receptor (Homo sapiens) (UniProt P29376); experiment: Inhibition of LTK at 10 uM; details: values are per cent of control
[39] = molecular target: Mitogen-activated protein kinase 9 (Homo sapiens) (UniProt P45984); experiment: Inhibition of JNK2 at 10 uM; values are per cent of control
[40] = tested on: Epidermal growth factor receptor (Homo sapiens), P00533 [UNDEFINED MUTATION]; experiment: Inhibition of EGFR L747-S752del, P753S mutant at 10 uM; values are per cent of control
[41] = tested on: Tyrosine-protein kinase ABL1 (Homo sapiens), P00519 [F317I]; experiment: Inhibition of phosphorylated ABL1 F317I mutant at 10 uM; details: values are per cent of control
[42] = molecular target: Tyrosine-protein kinase CSK (Homo sapiens) (UniProt P41240); experiment: Inhibition of CSK at 10 uM; values are per cent of control

Epidermal growth factor receptor (Homo sapiens), P00533 [L858R], sequence (P00533 whole entry L858R): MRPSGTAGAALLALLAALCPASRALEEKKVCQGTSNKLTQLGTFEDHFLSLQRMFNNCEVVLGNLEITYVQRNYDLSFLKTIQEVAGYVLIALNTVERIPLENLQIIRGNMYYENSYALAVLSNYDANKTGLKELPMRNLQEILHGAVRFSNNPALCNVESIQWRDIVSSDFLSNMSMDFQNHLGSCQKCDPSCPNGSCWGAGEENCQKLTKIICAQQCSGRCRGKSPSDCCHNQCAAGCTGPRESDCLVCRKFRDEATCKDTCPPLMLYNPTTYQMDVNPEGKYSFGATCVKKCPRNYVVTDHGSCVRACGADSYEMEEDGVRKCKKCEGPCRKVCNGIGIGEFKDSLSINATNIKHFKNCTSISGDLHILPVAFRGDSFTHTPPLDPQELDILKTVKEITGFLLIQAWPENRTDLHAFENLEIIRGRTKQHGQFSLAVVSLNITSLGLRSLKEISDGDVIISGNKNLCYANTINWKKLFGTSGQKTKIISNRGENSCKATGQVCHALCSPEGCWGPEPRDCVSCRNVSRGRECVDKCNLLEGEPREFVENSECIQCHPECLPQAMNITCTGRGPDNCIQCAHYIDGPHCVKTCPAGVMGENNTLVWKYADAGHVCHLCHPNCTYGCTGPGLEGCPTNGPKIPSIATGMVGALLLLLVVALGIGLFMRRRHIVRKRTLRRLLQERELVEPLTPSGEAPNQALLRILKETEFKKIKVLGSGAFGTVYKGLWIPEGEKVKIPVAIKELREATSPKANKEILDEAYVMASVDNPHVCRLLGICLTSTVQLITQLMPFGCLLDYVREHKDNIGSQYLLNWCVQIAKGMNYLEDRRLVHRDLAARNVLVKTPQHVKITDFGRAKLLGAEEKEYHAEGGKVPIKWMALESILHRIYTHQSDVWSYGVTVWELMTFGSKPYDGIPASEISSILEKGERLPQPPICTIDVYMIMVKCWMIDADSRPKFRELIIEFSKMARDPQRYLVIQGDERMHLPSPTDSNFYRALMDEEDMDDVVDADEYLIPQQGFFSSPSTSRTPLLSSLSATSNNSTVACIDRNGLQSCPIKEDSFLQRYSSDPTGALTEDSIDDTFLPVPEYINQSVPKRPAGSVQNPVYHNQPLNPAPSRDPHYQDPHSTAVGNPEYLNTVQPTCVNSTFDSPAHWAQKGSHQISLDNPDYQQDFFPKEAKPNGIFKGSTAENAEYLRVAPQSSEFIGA
Tyrosine-protein kinase ABL1 (Homo sapiens), P00519 [F317I], sequence (P00519 whole entry F317I): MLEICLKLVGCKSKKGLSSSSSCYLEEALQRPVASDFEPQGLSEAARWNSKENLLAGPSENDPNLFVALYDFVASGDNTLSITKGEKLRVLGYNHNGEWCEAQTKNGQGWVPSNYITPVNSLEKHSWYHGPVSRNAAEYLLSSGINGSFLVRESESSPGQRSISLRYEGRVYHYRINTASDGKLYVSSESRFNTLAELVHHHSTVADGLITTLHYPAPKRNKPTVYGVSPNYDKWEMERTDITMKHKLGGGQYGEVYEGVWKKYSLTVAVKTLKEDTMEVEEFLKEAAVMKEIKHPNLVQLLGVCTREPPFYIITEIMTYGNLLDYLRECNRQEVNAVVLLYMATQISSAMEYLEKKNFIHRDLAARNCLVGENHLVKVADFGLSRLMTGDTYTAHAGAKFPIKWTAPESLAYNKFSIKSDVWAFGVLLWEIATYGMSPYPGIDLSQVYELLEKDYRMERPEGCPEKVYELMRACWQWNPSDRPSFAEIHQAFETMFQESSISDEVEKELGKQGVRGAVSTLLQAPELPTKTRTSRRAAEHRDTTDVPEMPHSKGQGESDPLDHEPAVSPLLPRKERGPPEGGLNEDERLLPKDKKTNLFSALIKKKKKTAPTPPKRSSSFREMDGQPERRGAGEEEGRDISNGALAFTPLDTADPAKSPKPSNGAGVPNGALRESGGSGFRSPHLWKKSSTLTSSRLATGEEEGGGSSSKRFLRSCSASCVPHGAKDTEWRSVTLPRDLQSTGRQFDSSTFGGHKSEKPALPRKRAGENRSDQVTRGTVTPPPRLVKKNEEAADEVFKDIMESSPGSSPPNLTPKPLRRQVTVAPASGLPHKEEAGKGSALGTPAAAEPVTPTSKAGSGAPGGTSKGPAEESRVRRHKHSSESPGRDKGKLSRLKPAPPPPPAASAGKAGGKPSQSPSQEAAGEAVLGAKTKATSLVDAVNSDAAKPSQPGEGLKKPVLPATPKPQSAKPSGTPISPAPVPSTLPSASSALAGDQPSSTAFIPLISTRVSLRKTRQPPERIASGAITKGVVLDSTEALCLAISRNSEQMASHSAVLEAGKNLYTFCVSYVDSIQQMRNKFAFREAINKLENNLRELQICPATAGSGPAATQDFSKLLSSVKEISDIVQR
Serine/threonine-protein kinase MARK2 (Homo sapiens), sequence (Q7KZI7 whole entry): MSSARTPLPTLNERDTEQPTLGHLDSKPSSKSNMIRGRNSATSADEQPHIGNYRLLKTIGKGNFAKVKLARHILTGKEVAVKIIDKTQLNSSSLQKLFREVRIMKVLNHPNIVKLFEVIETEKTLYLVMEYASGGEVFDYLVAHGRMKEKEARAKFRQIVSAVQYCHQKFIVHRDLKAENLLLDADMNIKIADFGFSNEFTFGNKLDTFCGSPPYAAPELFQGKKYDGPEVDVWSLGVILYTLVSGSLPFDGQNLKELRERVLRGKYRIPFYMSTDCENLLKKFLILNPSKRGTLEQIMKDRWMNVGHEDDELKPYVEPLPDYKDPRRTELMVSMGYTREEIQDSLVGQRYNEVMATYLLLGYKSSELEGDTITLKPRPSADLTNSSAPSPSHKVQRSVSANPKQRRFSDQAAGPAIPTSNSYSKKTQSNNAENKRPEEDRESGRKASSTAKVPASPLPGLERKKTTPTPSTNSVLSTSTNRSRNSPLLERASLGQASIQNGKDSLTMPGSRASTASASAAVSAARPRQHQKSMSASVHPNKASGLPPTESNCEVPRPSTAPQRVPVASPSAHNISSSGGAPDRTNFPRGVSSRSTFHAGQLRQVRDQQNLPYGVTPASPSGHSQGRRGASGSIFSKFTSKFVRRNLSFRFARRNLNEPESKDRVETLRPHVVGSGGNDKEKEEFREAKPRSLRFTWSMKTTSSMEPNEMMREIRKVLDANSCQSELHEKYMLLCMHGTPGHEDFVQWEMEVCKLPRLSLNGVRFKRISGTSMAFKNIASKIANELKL
Ribosomal protein S6 kinase alpha-3 (Homo sapiens), sequence (P51812 whole entry, the tested form may be a part): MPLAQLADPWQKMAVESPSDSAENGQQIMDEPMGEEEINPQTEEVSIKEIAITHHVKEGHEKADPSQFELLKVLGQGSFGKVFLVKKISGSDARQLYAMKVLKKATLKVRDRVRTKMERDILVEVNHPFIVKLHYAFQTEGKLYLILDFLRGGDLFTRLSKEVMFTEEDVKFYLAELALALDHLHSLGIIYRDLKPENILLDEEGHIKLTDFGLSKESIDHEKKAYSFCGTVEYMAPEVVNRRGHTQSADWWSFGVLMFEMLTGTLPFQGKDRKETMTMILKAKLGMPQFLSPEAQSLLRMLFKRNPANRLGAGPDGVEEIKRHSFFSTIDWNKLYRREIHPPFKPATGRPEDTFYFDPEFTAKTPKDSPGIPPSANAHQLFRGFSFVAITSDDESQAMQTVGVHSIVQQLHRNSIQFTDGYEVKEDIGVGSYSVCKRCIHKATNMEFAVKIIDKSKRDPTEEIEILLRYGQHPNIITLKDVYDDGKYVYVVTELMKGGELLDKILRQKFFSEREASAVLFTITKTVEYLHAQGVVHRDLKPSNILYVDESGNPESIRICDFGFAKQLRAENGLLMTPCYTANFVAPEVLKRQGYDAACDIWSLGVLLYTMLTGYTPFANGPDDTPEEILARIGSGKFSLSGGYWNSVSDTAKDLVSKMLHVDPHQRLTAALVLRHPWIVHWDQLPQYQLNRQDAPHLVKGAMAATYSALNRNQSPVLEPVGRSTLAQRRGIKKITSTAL
Megakaryocyte-associated tyrosine-protein kinase (Homo sapiens), sequence (P42679 whole entry): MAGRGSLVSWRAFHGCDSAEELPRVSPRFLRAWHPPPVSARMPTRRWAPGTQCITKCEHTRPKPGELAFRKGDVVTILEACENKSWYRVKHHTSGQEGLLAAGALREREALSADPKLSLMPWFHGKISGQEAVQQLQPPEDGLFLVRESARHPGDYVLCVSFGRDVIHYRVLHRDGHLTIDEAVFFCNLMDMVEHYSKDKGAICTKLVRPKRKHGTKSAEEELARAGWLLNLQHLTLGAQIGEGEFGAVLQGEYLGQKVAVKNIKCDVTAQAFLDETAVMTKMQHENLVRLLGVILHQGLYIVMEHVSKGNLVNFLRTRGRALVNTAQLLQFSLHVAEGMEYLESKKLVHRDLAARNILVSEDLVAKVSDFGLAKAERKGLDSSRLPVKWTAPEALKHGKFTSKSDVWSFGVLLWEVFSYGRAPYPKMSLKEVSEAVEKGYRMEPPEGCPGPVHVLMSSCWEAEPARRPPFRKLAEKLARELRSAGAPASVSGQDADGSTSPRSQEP
Serine/threonine-protein kinase Nek11 (Homo sapiens), sequence (Q8NG66 whole entry, the tested form may be a part): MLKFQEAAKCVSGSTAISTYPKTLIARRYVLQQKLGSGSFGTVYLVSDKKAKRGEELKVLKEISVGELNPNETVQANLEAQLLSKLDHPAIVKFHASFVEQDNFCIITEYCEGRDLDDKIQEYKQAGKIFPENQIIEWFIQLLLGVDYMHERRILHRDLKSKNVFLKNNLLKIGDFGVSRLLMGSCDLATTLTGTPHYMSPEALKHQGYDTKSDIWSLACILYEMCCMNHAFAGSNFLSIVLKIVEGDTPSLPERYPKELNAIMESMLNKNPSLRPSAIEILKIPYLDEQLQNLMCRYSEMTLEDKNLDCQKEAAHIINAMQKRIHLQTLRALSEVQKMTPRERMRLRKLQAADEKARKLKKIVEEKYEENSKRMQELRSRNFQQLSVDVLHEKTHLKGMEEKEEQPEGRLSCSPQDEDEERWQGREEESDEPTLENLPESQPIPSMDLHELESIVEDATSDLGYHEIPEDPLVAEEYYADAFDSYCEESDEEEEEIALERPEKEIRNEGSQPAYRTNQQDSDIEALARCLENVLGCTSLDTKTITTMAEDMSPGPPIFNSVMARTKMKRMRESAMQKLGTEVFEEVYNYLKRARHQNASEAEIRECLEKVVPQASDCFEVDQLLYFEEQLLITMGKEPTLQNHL

CCN1CCN(Cc2ccc(NC(=O)c3ccc(C)c(C#Cc4cccnc4)c3)cc2C(F)(F)F)CC1
level, % of control [1]: 4%
inhibition [2]: 73%
residual binding, % of control [3]: 0.25%
inhibition [4]: 16%
residual binding, % of control [5]: 100%
residual binding, % of control [6]: 35%
inhibition [7]: 97%
inhibition [8]: 2.8%
inhibition [9]: 84%
inhibition [10]: 0%
inhibition [11]: 9.1%
level, % of control [12]: 2.3%
residual binding, % of control [13]: 0.25%
inhibition [14]: 42%
residual binding, % of control [15]: 1.8%
residual binding, % of control [16]: 5.2%
inhibition [17]: 6.8%
inhibition [18]: 36%
residual binding, % of control [19]: 8.2%
residual binding, % of control [20]: 0%
residual binding, % of control [21]: 100%
inhibition [22]: 3.6%
residual binding, % of control [23]: 40%
residual binding, % of control [24]: 0%
residual binding, % of control [25]: 75%
level, % of control [26]: 1.6%
residual binding, % of control [27]: 2.7%
inhibition [28]: 90%
level, % of control [29]: 96%
level, % of control [30]: 0.55%
residual binding, % of control [31]: 0.75%
residual binding, % of control [32]: 100%
% of control [33]: 0.2%
residual binding, % of control [34]: 70%
residual binding, % of control [35]: 0.65%
inhibition [36]: 100%
residual binding, % of control [37]: 94%
residual binding, % of control [38]: 4.5%
level, % of control [39]: 0%
level, % of control [40]: 0.9%
residual binding, % of control [41]: 4%
level, % of control [42]: 0.15%

CCN1CCN(Cc2ccc(NC(=O)c3ccc(C)c(C#Cc4cnc5[nH]ccc5c4)c3)cc2C(F)(F)F)CC1
level, % of control [1]: 0.25%
inhibition [2]: 59%
residual binding, % of control [3]: 2.7%
inhibition [4]: 2.8%
residual binding, % of control [5]: 94%
residual binding, % of control [6]: 45%
inhibition [7]: 98%
inhibition [8]: 3.6%
inhibition [9]: 100%
inhibition [10]: 0%
inhibition [11]: 18%
level, % of control [12]: 3.5%
residual binding, % of control [13]: 0.35%
inhibition [14]: 40%
residual binding, % of control [15]: 1.6%
residual binding, % of control [16]: 0.5%
inhibition [17]: 29%
inhibition [18]: 2.2%
residual binding, % of control [19]: 7.1%
residual binding, % of control [20]: 0%
residual binding, % of control [21]: 100%
inhibition [22]: 19%
residual binding, % of control [23]: 20%
residual binding, % of control [24]: 0%
residual binding, % of control [25]: 83%
level, % of control [26]: 4%
residual binding, % of control [27]: 2.6%
inhibition [28]: 100%
level, % of control [29]: 23%
level, % of control [30]: 0.45%
residual binding, % of control [31]: 0.1%
residual binding, % of control [32]: 83%
% of control [33]: 0.25%
residual binding, % of control [34]: 94%
residual binding, % of control [35]: 1.9%
inhibition [36]: 100%
residual binding, % of control [37]: 96%
residual binding, % of control [38]: 2.5%
level, % of control [39]: 0%
level, % of control [40]: 0.8%
residual binding, % of control [41]: 4.9%
level, % of control [42]: 0.1%
